According to patent US20240270801A1, “EPITOPE PEPTIDE OF HUMAN ALPHA-SYNUCLEIN AND PHARMACEUTICAL COMPOSITION INCLUDING SAID PEPTIDE” (Sumitomo Pharma Co., Ltd., priority 2021, published 2024):
Non-standard residues stand in square brackets, D forms with d. No end group written: not given here. Ahx = NCCCCCC(=O)O

Experiments:
aggregated human αSyn = experiment: Antibody-inducing ability in mice: ELISA antibody titer of immune serum with respect to aggregated human αSyn; format: in vivo, mouse; details: for Antibody titer with respect to aggregated human αSyn, relative to control: mice; for Antibody titer with respect to aggregated human αSyn (N = 4 − 6, mean ± standard deviation): Example 2, serum 2 weeks after second administration
Method: (§1) Using the various AJ peptide-human αSyn peptide conjugates produced in Example 1, an antibody-inducing ability with respect to human αSyn in mice was evaluated. The various AJ-human αSyn peptide conjugates (250 μg/mouse) or KLH-DMPVDPDN (25 μg/mouse) in physiological saline were intramuscularly administered to balb/c mice (females, 6 weeks old, CLEA Japan, Inc.) twice at a 2-week interval for immunization using aluminum hydroxide (Alum) (InvivoGen, 50 μg/mouse) as an adjuvant. As a negative control, physiological saline (100 μL/mouse) comprising the same amount of aluminum hydroxide was administered twice. Two weeks after the second administration, serum was recovered to evaluate the antibody titer with respect to human αSyn by ELISA.
(§2) ELISA was performed by the following method. 96-well plates were coated with human αSyn (Sigma) at 0.2 μg/well. After washing with PBST (Phosphate Buffered Saline comprising 0.05% Tween) once, blocking was performed with 3% skim milk (FUJIFILM Wako Pure Chemical Corporation). After washing with PBST three times, diluted serum was added to cause a reaction at room temperature for 1 hour. Furthermore, after washing with PBST three times, Goat anti-mouse IgG-HRP (abcam) was added to cause a reaction at room temperature for 1 hour. After washing with PBST three times, SureBlue TMB Microwell Peroxidase Substrate (KPL) was added to cause a reaction at room temperature for 10 minutes while light shielding. An equal volume of a TMB Stop Solution (KPL) was added to stop the reaction, and the absorbance at 450 nm was measured. ELISA with respect to aggregated human αSyn was performed by coating with the aggregated human αSyn (Stress Marq) at 15 ng/well instead of human αSyn in the above-mentioned method.
The antibody-inducing ability of the AJ-human αSyn peptide conjugates (AJ-p54, AJ-p54-KLH, and AJ-DMPVDPDN) produced in Example 1 with respect to human αSyn and aggregated human αSyn in mice was evaluated. Physiological saline or the AJ-human αSyn peptide conjugate (250 μg/mouse) was intramuscularly administered to balb/c mice (females, 6 weeks old, CLEA Japan, Inc.) twice at a 2-week interval using Alum (InvivoGen, 50 μg/mouse) as an adjuvant. Furthermore, KLH-DMPVDPDN (25 μg/mouse) was administered using Alum (InvivoGen, 50 μg/mouse) as an adjuvant. Two weeks after the second administration, serum was recovered to evaluate the antibody titer by ELISA. ELISA was performed by the method described in Example 2.
The antibody-inducing ability of the produced various human αSyn peptide conjugates with respect to human αSyn and aggregated human αSyn in the mice was evaluated by the method described in Example 2 using the antibody titers with respect to human αSyn and aggregated human αSyn of the mouse immune serum. […] In Table 6, the antibody titer of AJ-p242, AJ-p244, AJ-p347, or AJ-p361 is shown with the antibody titer of AJ-p150 as a control being 1 (logarithm). In addition, the antibody titers of AJ-p229, AJ-p237, and AJ-p298 are shown with the antibody titer of AJ-p54 as a control being 1 (logarithm).
The antibody-inducing ability of the AJ-human αSyn peptide conjugates with a modified linker with respect to human αSyn and aggregated human αSyn in the mice was evaluated using the antibody titers with respect to human αSyn and aggregated human αSyn of the mouse immune serum. […] In Table 8, the antibody titers of the AJ-human αSyn peptide conjugates with various modified linkers comprising p54 are shown with the antibody titer of AJ-p54 as a control being 1 (logarithm). In addition, the antibody titers of the AJ-human αSyn peptide conjugates with various modified linkers comprising p150 are shown with the antibody titer of AJ-p150 as a control being 1 (logarithm).

human αSyn = experiment: Antibody-inducing ability in mice: ELISA antibody titer of immune serum with respect to human αSyn; format: in vivo, mouse; design: key to Antibody titer with respect to human αSyn, relative to control: log titer relative to control conjugate (control = 1); details: for Antibody titer compared with control conjugate (in words): Example 9, mice, human αSyn and aggregated human αSyn, control AJ-p150 or AJ-p54; for Antibody titer with respect to human αSyn (N = 4 − 6, mean ± standard deviation): Example 2, serum 2 weeks after second administration
Method: as §1
as §2, with “above-mentioned method. […]” for “above-mentioned method.”
The antibody-inducing ability of the produced various human αSyn peptide conjugates with respect to human αSyn and aggregated human αSyn in the mice was evaluated by the method described in Example 2 using the antibody titers with respect to human αSyn and aggregated human αSyn of the mouse immune serum. […] In Table 6, the antibody titer of AJ-p242, AJ-p244, AJ-p347, or AJ-p361 is shown with the antibody titer of AJ-p150 as a control being 1 (logarithm). In addition, the antibody titers of AJ-p229, AJ-p237, and AJ-p298 are shown with the antibody titer of AJ-p54 as a control being 1 (logarithm). […]

[1] = Example 9, N = 4, titer of AJ-p150 or AJ-p54 as control being 1 (logarithm)
[2] = Example 9, mice, N = 4, titer of AJ-p150 or AJ-p54 as control being 1 (logarithm)
[3] = balb/c mice, i.m. twice at 2-week interval, Alum, AJ conjugates 250 μg/mouse, KLH-DMPVDPDN 25 μg/mouse
[4] = Example 10, modified linker, titer of AJ-p54 or AJ-p150 as control being 1 (logarithm)
[5] = Example 10, modified linker, mice, titer of AJ-p54 or AJ-p150 as control being 1 (logarithm)
[6] = Example 4, balb/c mice, i.m. twice at 2-week interval, Alum, AJ conjugates 250 μg/mouse, KLH-DMPVDPDN 25 μg/mouse

Substance	Antibody titer with respect to aggregated human αSyn, relative to control (aggregated human αSyn; [1])	Antibody titer with respect to human αSyn, relative to control (human αSyn; [2])	Antibody titer with respect to aggregated human αSyn, relative to control (aggregated human αSyn; [4])	Antibody titer with respect to human αSyn, relative to control (human αSyn; [5])	further results
ELKLIFLHRLKRLRKRLKRKXHAFEMPSEEG (ELKLIFLHRLKRLRKRLKRK[Ahx]HAFEMPSEEG) [AJ-p347]	0.97	0.97			Antibody titer compared with control conjugate (in words) (human αSyn): same level of an antibody titer
ELKLIFLHRLKRLRKRLKRKXKKDQLGKND (ELKLIFLHRLKRLRKRLKRK[Ahx]KKDQLGKND) [AJ-p233]					Antibody titer with respect to aggregated human αSyn (N = 4 − 6, mean ± standard deviation) (aggregated human αSyn; [3]): 555 ± 377; Antibody titer with respect to human αSyn (N = 4 − 6, mean ± standard deviation) (human αSyn; [3]): 1323 ± 1505
ELKLIFLHRLKRLRKRLKRKXEAFEMPSEEG (ELKLIFLHRLKRLRKRLKRK[Ahx]EAFEMPSEEG) [AJ-p277]					Antibody titer with respect to aggregated human αSyn (N = 4 − 6, mean ± standard deviation) (aggregated human αSyn; [3]): 576 ± 322; Antibody titer with respect to human αSyn (N = 4 − 6, mean ± standard deviation) (human αSyn; [3]): 1920 ± 1585
ELKLIFLHRLKRLRKRLKRKGGGGSKKDQLGKNE [AJ-GGGGS-p54]			1.02	1.05	
ELKLIFLHRLKRLRKRLKRKXEAYEMPSEE (ELKLIFLHRLKRLRKRLKRK[Ahx]EAYEMPSEE) [AJ-p150, AJ peptide linked to p150 via ε-Acp (X)]	1	1	1	1	Antibody titer with respect to aggregated human αSyn (N = 4 − 6, mean ± standard deviation) (aggregated human αSyn; [3]): 576 ± 322; Antibody titer with respect to human αSyn (N = 4 − 6, mean ± standard deviation) (human αSyn; [3]): 2176 ± 1471
ELKLIFLHRLKRLRKRLKRKXKRDQLGKNE (ELKLIFLHRLKRLRKRLKRK[Ahx]KRDQLGKNE) [AJ-p227]					Antibody-inducing ability regarding the aggregated human αSyn (in words) (aggregated human αSyn; Example 2, balb/c mice): particularly strong antibody-inducing ability; Antibody titer with respect to aggregated human αSyn (N = 4 − 6, mean ± standard deviation) (aggregated human αSyn; [3]): 3072 ± 2748; Antibody titer with respect to human αSyn (N = 4 − 6, mean ± standard deviation) (human αSyn; [3]): 4267 ± 3200
ELKLIFLHRLKRLRKRLKRKGKKDQLGKNE [AJ-G-p54]			0.96	0.89	
ELKLIFLHRLKRLRKRLKRKϵKKKDQLGKNE [AJ-εK-p54]			0.81	0.70	
ELKLIFLHRLKRLRKRLKRKXKKDQLGKNE-C-KLH (not fully specified; C-terminal Cys linked to KLH) [AJ-p54-KLH, KLH-modified AJ-human αSyn peptide conjugate, KLH linked via cysteine to the C-terminal]					Induction of the antibody to aggregated human αSyn (in words) (aggregated human αSyn; Example 4, balb/c mice): induced; Antibody titer with respect to aggregated human αSyn (mean ± standard deviation) (aggregated human αSyn; [6]): 640 ± 314; Induction of the antibody to human αSyn (in words) (human αSyn; Example 3, mice): induced to the same extent; Antibody titer (N = 4 − 6, mean ± standard deviation) with respect to human αSyn (human αSyn; Example 3, mice, same manner as Example 2): 1621 ± 681; Induction of the antibody to human αSyn (in words) (human αSyn; Example 4, balb/c mice): induced; Antibody titer with respect to human αSyn (mean ± standard deviation) (human αSyn; [6]): 1621 ± 681
ELKLIFLHRLKRLRKRLKRKXDAFEMPSEEG (ELKLIFLHRLKRLRKRLKRK[Ahx]DAFEMPSEEG) [AJ-p361]	0.95	0.92			Antibody titer compared with control conjugate (in words) (human αSyn): same level of an antibody titer
ELKLIFLHRLKRLRKRLKRKDDAKKEAYEMPSEE [AJ-DDAKK-p150]			1.30	1.14	
ELKLIFLHRLKRLRKRLKRKEAAAKKKDQLGKNE [AJ-EAAAK-p54]			0.96	0.96	
ELKLIFLHRLKRLRKRLKRKϵKEAYEMPSEE [AJ-εK-p150]			0.86	0.82	
ELKLIFLHRLKRLRKRLKRKXKKNQLGKNE (ELKLIFLHRLKRLRKRLKRK[Ahx]KKNQLGKNE) [AJ-p237]	0.95	0.91			Antibody titer compared with control conjugate (in words) (human αSyn): same level of an antibody titer
ELKLIFLHRLKRLRKRLKRKϵKKKEAYEMPSEE [AJ-εKKK-p150]			0.90	0.79	
ELKLIFLHRLKRLRKRLKRKXAAYEMPSEEG (ELKLIFLHRLKRLRKRLKRK[Ahx]AAYEMPSEEG) [AJ-p242]	1.12	1.06			Antibody titer compared with control conjugate (in words) (human αSyn): same level of an antibody titer
ELKLIFLHRLKRLRKRLKRKϵKKKKKKDQLGKNE [AJ-εKKKK-p54]			0.90	0.77	
ELKLIFLHRLKRLRKRLKRKGGGGSEAYEMPSEE [AJ-GGGGS-p150]			1.25	1.19	
ELKLIFLHRLKRLRKRLKRKXKKTQLGKNE (ELKLIFLHRLKRLRKRLKRK[Ahx]KKTQLGKNE) [AJ-p229]	1.02	0.92			Antibody titer compared with control conjugate (in words) (human αSyn): same level of an antibody titer
